Source: patent publication US4454123A, “O-xylopyranoside series compounds and methods of use” (Seikagaku Kogyo Co. Ltd., priority 1980, dated 1984)
Entries after “also recorded” stand apart in the source; their conditions may differ. Like-named read-outs stand apart in the source and are kept apart here.

Assays:
[1] = Acute toxicity (LD50) by oral or intraperitoneal administration to ddY mice (Test Example 6); assay type: in vivo; conditions: mouse, in vivo, 7 days
Protocol: The acute toxicity of the compound according to this invention was determined by forced oral or intraperitoneal administration thereof to ddY mice.
To prepare each specimen to be administered, a predetermined amount of each compound shown in Table 5 was dissolved in a physiological saline or suspended in a 0.2% solution of carboxymethylcellulose in a physiological saline. Each specimen was administered orally to a ddY mouse via its stomach tube or injected intraperitoneally.

Sarcoma-180 = assay: Activity against a transplantable cancer, Sarcoma-180 (Test Example 7); assay type: in vivo, ICR-JCL mice; conditions: Mus musculus, Sarcoma-180, ip, 240 h, 100 mg/kg ip once a day for 10 days; read-out: I.R. (inhibition ratio, Sarcoma-180 tumor weight)
Protocol: Sarcoma-180 cells (1×10^6 cells) were inoculated subcutaneously into the back skin of each of ICR-JCL mice.
Chemotherapy was given intraperitoneally 24 hrs. after inoculation and performed once a day for 10 days. Each specimen to be administered was prepared by dissolving or suspending 30 mg of each compound according to this invention in 1 ml of a physiological saline or in 1 ml of a 0.2% solution of carboxymethylcellulose in a physiological saline, respectively.
All the solutions and the suspensions thus prepared were injected at a volume of 0.1 ml as a single dose (100 mg/Kg).
The inhibition ratio (%) was calculated according to the following equation: […]
wherein T represents the mean weight of the tumor Sarcoma-180 in a tested group of mice; and C represents the mean weight of the tumor in a control group of mice.

[2] = system: synthesis of [35S]glycosaminoglycan in epiphysial cartilages; assay: Recovery in the rate of 35S uptake in cartilage in which glycosaminoglycan synthesis was inhibited by cycloheximide (Test Examples 4, 5); assay type: cell-based, chick embryos; conditions: for effectiveness as initiator for the synthesis of chondroitin sulfate: 1.0 mM solution in DMSO, in words; for Rate of 35S uptake: cycloheximide 0.3 mM; for 35S uptake as compared with the case where no xylopyranoside was added: 0.02 mM solution in DMSO
Protocol: (§1) Epiphysial cartilages were taken from chick embryos aged 12 days in the Tyrode's medium under ice-cooling, and excess tissues were removed therefrom. To 150 mg. of cartilages corresponding to five embryos, 5 ml. of BGJb [a completely synthetic culture medium prepared according to a recipe of GIBCO (Grand Island Biological Company)] was added, followed by pre-incubation at a temperature of 37° C. After replacing the culture medium, further 1 ml. of BGJb and 5 μCi Na2^35 SO4 were added, and the culture system was kept at 37° C. for 3 hours. The culture medium was then replaced by 1 ml. of a fresh chase medium containing no radio active isotope. After keeping the culture system at 37° C. for 1 hour, the culture medium was separated from the tissues. To study the effects of the xyloside compound on the synthesis of glycosaminoglycan, the xyloside compound was added in the predetermined concentration to the pre-incubation and incubation media.
(§2) After the incubation, the labeled medium containing Na2^35 SO4 was combined with the chase medium. Pronase-P (trade name) (available from Kaken Kagaku Co., Ltd.) was added thereto in a 0.5 M tris-HCl buffer solution (pH 8.0), and the resulting mixture was digested at 50° C. for 16 hours. The digested reaction mixture was then subjected to gel filtration through a column (1.5×14 cm.) packed with Bio-Gel P-2 (available from Bio-Rad Company) using a 0.2 M ammonium formate solution as an eluate. In this way, the Vo fraction was collected and was then freeze-dried to give a crude glycosaminoglycan.
(§3) On the other hand, ice-cold 4 M guanidine hydrochloride was added to the tissues which were previously separated from the culture medium. The resulting mixture was left to stand overnight at a temperature of -20° C., and then homogenized. The obtained homogenate was left to stand overnight at room temperature and centrifuged at a speed of 8,500 rpm to obtain a supernatant. To the obtained liquid, water was added in an amount threefold that of the supernatant. Then, a 95% ethyl alcohol (containing 1.3% of potassium acetate) was added to the resulting mixture in an amount threefold that of the mixture to obtain a precipitate. This procedure was repeated twice, and the combined precipitates were dried in a desiccator. The obtained precipitates were dissolved in a 0.02 M tris-HCl buffer solution (pH 8.0) and digested with Pronase-P in the manner similar to the culture medium described above, thereby obtaining a crude glycosaminoglycan.
(§4) According to the same procedure as in Test example 1, a crude glycosaminoglycan was obtained.
As the xyloside compound, publicly-known methyl 1-thio-β-D-xylopyranoside and n-butyl 1-thio-β-D-xylopyranoside,and six compounds according to the present invention viz. n-heptyl 1-thio-β-D-xylopyranoside, n-nonyl 1-thio-β-D-xylopyranoside, n-decyl 1-thio-β-D-xylopyranoside, n-undecyl […], n-lauryl 1-thio-β-D-xylopyranoside and n-cetyl 1-thio-β-D-xylopyranoside were used. The effects of these compounds on the total amount of [^35 S]glycosaminoglycan synthesized (^35 S uptake amount) were investigated.
That is, after the effect of the addition of DMSO (dimethyl sulfoxide) which is a solvent was investigated, […], thereby inhibiting the synthesis of [^35 S]glycosaminoglycan by around up to 95%. Subsequently, to the medium in which the synthesis of glycosaminoglycan had been inhibited, there was added each solution of the xyloside compound in DMSO having various concentrations to investigate the recovery in the rate of the ^35 S uptake (the relative value expressed by percentage ^35 S uptake relative to the amount of uptake in a control medium to which no xylpyranoside compound was added).
According to the same procedure as in Example 1, a crude glycosaminoglycan was obtained. […]

[3] = system: synthesis of chondroitin sulfate in epiphysial cartilages; assay: Effect of xyloside compounds on synthesis of [35S]glycosaminoglycan (chondroitin sulfate) in epiphysial cartilage culture (Test Examples 1-3); assay type: cell-based, chick embryos; conditions: for concentration required compared with O-β-D-xylopyranoside compounds / effectiveness as initiator for the synthesis of chondroitin sulfate / total 35S uptake amount of glycosaminoglycan as the concentration of the xyloside compound rose: in words; for total 35S uptake amount of glycosaminoglycan as the concentration of the xyloside compound rose: concentration in culture medium varied; for activity at 1000 µM: Gallus gallus
Protocol: as §1, §2, §3
As the xyloside compound, conventional O-paranitrophenyl-β-D-xylopyranoside, and two compounds according to the present invention viz. C-n-butyl-β-D-xylopyranoside and C-ethyl-β-D-xylopyranoside were used. The effects of these xyloside compounds on the total amount of [^35 S] glycosaminoglycan synthesized (^35 S uptake amount), the amount thereof liberated to the culture medium and the amount thereof remaining in the tissues were as shown in FIGS. 1 to 3.
In each Figure, the vertical axis denotes the amount of [^35 S]chondroitin sulfate (^35 S cpm×10^-4 /μmol.uronic acid) and the horizontal axis denotes the concentration (mM) of each xylopyranoside compound in the culture medium.
as §4
As the xyloside compound, conventional O-paranitrophenyl β-D-xylopyranoside and N-para(sodiumoxycarbonyl)phenyl-D-xylopyranosylamine, and three compounds according to the present invention viz. para(sodiumoxycarbonyl)phenyl β-D-xylopyranoside, C-para(sodiumoxycarbonyl)benzyl-β-D-xylopyranoside and para(sodiumoxycarbonyl)phenyl 1-thio-β-D-xylopyranoside were used. The effects of these xyloside compounds on the total amount of [^35 S]glycosaminoglycan synthesized (^35 S uptake amount) were shown in FIGS. 3 to 7. […]

[4] = ip, intraperitoneal, read-out: LD50 (ip)

## O[C@@H]1[C@@H](O)[C@H](Cc2ccccc2)OC[C@H]1O [C-Benzyl-1-β-D-xylopyranoside, C-Benzyl-β-D-xylopyranoside]
[1]; [4]
  LD50 at 168 h: 2400 mg/kg
[1]; po, read-out: LD50 (po)
  LD50 at 168 h: 7200 mg/kg
Sarcoma-180
  inhibition in vivo at 100 mg/kg: 30.9%

## O=C(O)c1ccc(C[C@@H]2OC[C@@H](O)[C@H](O)[C@H]2O)cc1 [C-Para(lithiumoxycarbonyl)benzyl-β-D-xylopyranoside]
[1]; [4]
  LD50 at 168 h: 2500 mg/kg
[1]; po, read-out: LD50 (po)
  LD50 at 168 h: 8600 mg/kg
Sarcoma-180
  inhibition in vivo at 100 mg/kg: 44.7%

## CCCCCCC[C@@H]1OC[C@@H](O)[C@H](O)[C@H]1O [C-n-Heptyl-β-D-xylopyranoside]
[2]
  effectiveness as initiator for the synthesis of chondroitin sulfate: extremely effective initiators for the synthesis of chondroitin sulfate
[2]; xyloside 0.2 mM, DMSO 0.1%
  Rate of 35S uptake: 114.0%
[2]; xyloside 0.5 mM, DMSO 0.1%
  Rate of 35S uptake: 183.0%
[2]; xyloside 1.0 mM, DMSO 0.1%
  Rate of 35S uptake: 193.0%
[1]; [4]
  LD50 at 168 h: 1040 mg/kg
[1]; po, read-out: LD50 (po)
  LD50 at 168 h: 4200 mg/kg
Sarcoma-180
  inhibition in vivo at 100 mg/kg: 54.8%

## CCCCCC[C@@H]1OC[C@@H](O)[C@H](O)[C@H]1O [C-n-hexyl-β-D-xylopyranoside, C-n-Hexyl-β-D-xylopyranoside]
[2]
  effectiveness as initiator for the synthesis of chondroitin sulfate: extremely effective initiators for the synthesis of chondroitin sulfate
[2]; xyloside 0.2 mM, DMSO 0.1%
  Rate of 35S uptake: 82.0%
[2]; xyloside 0.5 mM, DMSO 0.1%
  Rate of 35S uptake: 148.0%
[2]; xyloside 1.0 mM, DMSO 0.1%
  Rate of 35S uptake: 196.0%

## CC(C)CCS[C@@H]1OC[C@@H](O)[C@H](O)[C@H]1O [Isoamyl 1-thio-β-D-xylopyranoside]
[1]; [4]
  LD50 at 168 h: 1850 mg/kg
[1]; po, read-out: LD50 (po)
  LD50 at 168 h: 5800 mg/kg
Sarcoma-180
  inhibition in vivo at 100 mg/kg: 35.6%

## CC(C)S[C@@H]1OC[C@@H](O)[C@H](O)[C@H]1O [Isopropyl 1-thio-β-D-xylopyranoside]
[1]; [4]
  LD50 at 168 h: 2200 mg/kg
[1]; po, read-out: LD50 (po)
  LD50 at 168 h: 6700 mg/kg
Sarcoma-180
  inhibition in vivo at 100 mg/kg: 30.4%

## NC(=O)c1ccc(NC2OC[C@@H](O)[C@H](O)[C@H]2O)cc1 (stereo partly drawn) [N-carbamoylphenyl-D-xylopyranosylamine, N-Paracarbamoylphenyl-D-xylopyranosylamine]
[3]
  concentration required compared with O-β-D-xylopyranoside compounds: requires higher concentration as compared with the O-β-D-xylopyranoside compounds
  effectiveness as initiator for the synthesis of chondroitin sulfate: good initiator for the synthesis of chondroitin sulfate
  total 35S uptake amount of glycosaminoglycan as the concentration of the xyloside compound rose: increased as the concentration of the xyloside compound rose

## O=C(O)c1ccc(NC2OC[C@@H](O)[C@H](O)[C@H]2O)cc1 (stereo partly drawn) [N-para(sodiumoxycarbonyl)phenyl-D-xylopyranosylamine]
[3]
  concentration required compared with O-β-D-xylopyranoside compounds: requires higher concentrations as compared with O-paranitrophenyl-β-D-xylopyranoside
  total 35S uptake amount of glycosaminoglycan as the concentration of the xyloside compound rose: shows a similar tendency; also recorded: does not change remarkably within the range of the concentration of 0 to 20 mM of the compound and that the increase in the total uptake amount thereafter is mild

## O=[N+]([O-])c1ccc(O[C@@H]2OC[C@@H](O)[C@H](O)[C@H]2O)cc1 [O-paranitrophenyl-β-D-xylopyranoside]
[3]; at 1 mM, read-out: [35S]glycosaminoglycan liberated to the culture medium
  activity at 1000 µM: 95%
[3]; at 1 mM, read-out: [35S]glycosaminoglycan remaining in the tissues
  activity at 1000 µM: 11%
[3]; at 1 mM
  35S uptake of glycosaminoglycan: 40800 cpm
  35S uptake of glycosaminoglycan relative to control: 2.35 times that of the control
  [35S]glycosaminoglycan remaining in the tissues: 11 % of the control
[3]
  effectiveness as initiator for the synthesis of chondroitin sulfate: extremely effective as an initiator for the synthesis of chondroitin sulfate; also recorded: extremely effective as the initiator for the synthesis of condroitin sulfate
  total 35S uptake amount of glycosaminoglycan as the concentration of the xyloside compound rose: increased

## O=C(O)c1ccc(S[C@@H]2OC[C@@H](O)[C@H](O)[C@H]2O)cc1 [Para(lithiumoxycarbonyl)phenyl 1-thio-β-D-xylopyranoside]
[1]; [4]
  LD50 at 168 h: 2700 mg/kg
[1]; po, read-out: LD50 (po)
  LD50 at 168 h: 7800 mg/kg
Sarcoma-180
  inhibition in vivo at 100 mg/kg: 47.2%

## O=C(O)c1ccc(O[C@@H]2OC[C@@H](O)[C@H](O)[C@H]2O)cc1 [Para(potassiumoxycarbonyl)phenyl-β-D-xylopyranoside]
[1]; [4]
  LD50 at 168 h: 3020 mg/kg
[1]; po, read-out: LD50 (po)
  LD50 at 168 h: 9800 mg/kg
Sarcoma-180
  inhibition in vivo at 100 mg/kg: 44.8%

## C[C@@H]1C[C@@H]([C@H](O)CC2CC(=O)NC(=O)C2)C(=O)[C@@H](C)C1 [cycloheximide, reference compound]
[2]; Gallus gallus, read-out: inhibition of the synthesis of [35S]glycosaminoglycan
  inhibition at 30 µM: ~95%
[2]; no xyloside, DMSO 0%, relative to control medium
  Rate of 35S uptake: 5.5%
[2]; no xyloside, DMSO 0.1%, relative to control medium
  Rate of 35S uptake: 4.9%
[2]; no xyloside, DMSO 0.2%, relative to control medium
  Rate of 35S uptake: 6.1%
[2]; no xyloside, DMSO 0.5%, relative to control medium
  Rate of 35S uptake: 6.1%
[2]; no xyloside, DMSO 1.0%, relative to control medium
  Rate of 35S uptake: 5.8%

## CCCCCCCS[C@@H]1OC[C@@H](O)[C@H](O)[C@H]1O [n-heptyl 1-thio-β-D-xylopyranoside, n-Heptyl 1-thio-β-D-xylopyranoside]
[2]
  35S uptake as compared with the case where no xylopyranoside was added: around twice

## CCCCCCCCS[C@@H]1OC[C@@H](O)[C@H](O)[C@H]1O [n-octyl 1-β-D-xylopyranoside, n-Octyl 1-thio-β-D-xylopyranoside]
[2]
  35S uptake as compared with the case where no xylopyranoside was added: around twice
